ChEMBL document CHEMBL4152231, “Identification of novel 2-benzyl-1-indanone analogs as interleukin-5 inhibitors” (Eur J Med Chem, 2018)

Each molecule was assayed against T1, Interleukin-5 (Mus musculus) (UniProt P04401) (assay: Inhibition of IL-5 in mouse Y16 cells assessed as reduction in cell proliferation at 30 uM after 48 hrs by WST-1 assay relative to control).
T1 sequence (whole entry): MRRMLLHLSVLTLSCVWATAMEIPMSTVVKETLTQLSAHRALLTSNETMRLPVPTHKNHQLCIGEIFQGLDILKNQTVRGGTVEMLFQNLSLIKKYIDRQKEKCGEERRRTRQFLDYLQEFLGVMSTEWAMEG
Format: cell-based

inhibition [%]	Compound
90	COCOc1ccc(CC2Cc3cccc(OCC4CCCCC4)c3C2=O)cc1 (stereo unspecified)
70	O=C1c2c(cccc2OCc2ccccc2)CC1Cc1ccc(O)cc1 (stereo unspecified)
78	O=C1c2c(cccc2OCCC2CCCCC2)CC1Cc1ccc(O)cc1 (stereo unspecified)
5.6	COc1ccc(/C=C2\Cc3cccc(OCC4CCCCC4)c3C2=O)cc1
47	O=C1c2c(cccc2OCCc2ccccc2)CC1Cc1ccccc1O (stereo unspecified)
0	COc1ccc(COc2cccc3c2C(=O)/C(=C/c2ccc(O)cc2)C3)cc1
25	COc1ccc(/C=C2\Cc3cccc(O)c3C2=O)cc1
95	O=C1c2c(cccc2OCC2CCCCC2)CC1Cc1cccc(O)c1 (stereo unspecified)
40	O=C1/C(=C/c2ccccc2)Cc2cccc(O)c21
96	O=c1c(Cc2ccc(O)cc2)coc2cccc(OCC3CCCCC3)c12
30	O=C1c2c(O)cccc2CC1Cc1ccc(O)cc1 (stereo unspecified)
23.5	COCOc1ccc(/C=C2\Cc3cccc(OCC4CCCCC4)c3C2=O)cc1
29	COc1ccc(COc2cccc3c2C(=O)/C(=C/c2ccc(Cl)cc2)C3)cc1
5	COc1ccc(COc2cccc3c2C(=O)/C(=C/c2ccccc2)C3)cc1
100	O=C1c2c(cccc2OCC2CCCCC2)CC1Cc1ccc(O)cc1 (stereo unspecified)
70	O=C1c2c(cccc2OCC2CCCCC2)CC1Cc1ccc(Cl)cc1 (stereo unspecified)
60.5	O=C1c2c(cccc2OCCc2ccccc2)CC1Cc1cccc(O)c1 (stereo unspecified)
6	COc1ccc(/C=C2\Cc3cccc(OCc4ccc(OC)cc4)c3C2=O)cc1
68	Cc1ccc(CC2Cc3cccc(OCC4CCCCC4)c3C2=O)cc1 (stereo unspecified)
13	O=C1c2c(cccc2OCC2CCCCC2)CC1Cc1ccccc1O (stereo unspecified)
44	COc1ccc(CC2Cc3cccc(OCC4CCCCC4)c3C2=O)cc1 (stereo unspecified)
17	COc1ccc(COc2cccc3c2C(=O)/C(=C/c2ccc(C)cc2)C3)cc1
47	O=C1/C(=C/c2ccc(O)cc2)Cc2cccc(OCC3CCCCC3)c21
35	O=C1/C(=C/c2ccc(O)cc2)Cc2cccc(O)c21
32	O=C1/C(=C/c2ccc(O)cc2)Cc2cccc(OCc3ccc([N+](=O)[O-])cc3)c21
59	O=C1c2c(cccc2OCCc2ccccc2)CC1Cc1ccc(O)cc1 (stereo unspecified)
